The values below come from patent publication US6806229B1, “Herbicidally active pyridine sulfonyl urea derivatives” (LG Life Sciences, priority 2003, dated 2004).

Read-outs that look alike come from different tables or passages of the source.

In data set [1] the test system is Oryza sativa. Nature of the data set: Phytotoxicity to rice (direct-seeded and transplanted) in paddy condition, greenhouse pot test. Particulars: visual rating after two weeks; for Phytotoxicity, Oryza sativa, Seed: direct-seeded rice, treated 5 days after sowing; for Phytotoxicity, Oryza sativa, Transplanted: transplanted rice seedlings, treated 5 days after transplanting. The data set is classed as in vivo. An excerpt: (§1) Pots having a surface area of 150 cm^2 were filled with a small amount of fertilizer and sterilized paddy field soil in a muddy state with a depth of 5 cm. Five (5) seeds of pre-germinated rice were directly sown on the soil surface and three (3) rice seedlings (2˜3 leaves) prepared in advance were transplanted in a depth of 2 cm in each pot. In another pot, seeds of barnyardgrass were sown and incorporated into the surface layer of soil. After sowing and transplanting of rice plant and sowing of barnyardgrass, the pots were flooded with water 3 cm deep and kept in a greenhouse. The rice plant was treated with the chemicals 5 days after sowing or transplanting, and barnyardgrass was treated with the chemicals at the pre-emergence (5 days after from sowing) and post-emergence stage (at the three-leaf stage, usually after 15 days from sowing).
(§2) Suitable herbicidal compositions were prepared by mixing and dissolving 1 part by weight of the active compound with 5 parts by weight of acetone and 1 part by weight of alkylaryl polyglycolether as an emulsifier and then diluting with water to the predetermined concentration. Application was made by dropping the herbicide solutions onto the water surface of the pots.

Data set [2] concerns Echinochloa crus-galli. Kind of data set: Herbicidal activity to barnyardgrass in paddy condition, pre- and post-emergence, greenhouse pot test. Type of data set: in vivo. The conditions noted are these: Echinochloa crus-galli, 336 h, visual rating after two weeks.
From the text: as §1, §2

The mark [3] stands for this setting: 80 g/ha, 0 = none, 100 = complete death.
Setting [4] is: post-emergence, three-leaf stage, read-out: Herbicidal activity, Echinochloa crus-galli, Post-emergence (3-Leaf stage).
Where [5] appears, read: pre-emergence (5 days after sowing), read-out: Herbicidal activity, Echinochloa crus-galli, Pre-emergence.
The mark [6] stands for this setting: pre-emergence (5 days after sowing), 0 = no activity, 100 = complete death, read-out: Herbicidal activity, Echinochloa crus-galli, Pre-emergence.

Consider `COc1cc(OC)nc(NC(=O)NS(=O)(=O)c2cccnc2[C@@H](OC(=O)CO)[C@H](C)F)n1` [Com. 1], for which the “Phytotoxicity, Oryza sativa, Seed” value amounted to 0% in data set [1] (10 g/ha), 10% in data set [1] (20 g/ha), 30% in data set [1] (40 g/ha) and 30% in data set [1] (setting [3]). The “Phytotoxicity, Oryza sativa, Transplanted” value (“Phytotoxicity … Transplanted” below) in data set [1] (10 g/ha) was 0%; in data set [1] (20 g/ha), 10%; in data set [1] (40 g/ha), 10%; in data set [1] (80 g/ha) it was 20%. For the same molecule, the pest or weed control at 5 g/ha is 60% in data set [2] (setting [4]) and 50% in data set [2] (setting [5]). Also, the pest or weed control at 10 g/ha in data set [2] (setting [4]) and in data set [2] (setting [5]) was 80% in each case. The pest or weed control at 20 g/ha in data set [2] (setting [4]) and in data set [2] (setting [5]) was 90% each time. For the same molecule, the pest or weed control at 30 g/ha came to 100% in data set [2] (setting [4]) and 90% in data set [2] (setting [6]).
`COc1cc(OC)nc(NC(=O)NS(=O)(=O)c2cccnc2[C@@H](OC(=O)CCO)[C@H](C)F)n1` [Com. 3]: the “Phytotoxicity, Oryza sativa, Seed” value in data set [1] (10 g/ha) is on record as 0%; in data set [1] (20 g/ha), 10%; in data set [1] (40 g/ha), 30%; in data set [1] (setting [3]) it was 30%. Besides, the “Phytotoxicity … Transplanted” value in data set [1] (10 g/ha) is recorded as 5%; in data set [1] (20 g/ha) it was 10%; in data set [1] (40 g/ha) it was 20%; in data set [1] (80 g/ha), 20%. Further, the pest or weed control at 5 g/ha in data set [2] (setting [4]) and in data set [2] (setting [5]) was 60% throughout. The pest or weed control at 10 g/ha worked out at 80% in data set [2] (setting [4]) and 90% in data set [2] (setting [5]). Also, the pest or weed control at 20 g/ha in data set [2] (setting [4]) is 90%; in data set [2] (setting [5]), 95%. The pest or weed control at 30 g/ha in data set [2] (setting [4]) and in data set [2] (setting [6]) was 100% each time.
Consider `COCC(=O)O[C@H](c1nccc(Cl)c1S(=O)(=O)NC(=O)Nc1nc(OC)cc(OC)n1)[C@H](C)F` [Com. 5], for which the “Phytotoxicity, Oryza sativa, Seed” value in data set [1] (10 g/ha) is recorded as 0%; in data set [1] (20 g/ha) it was 10%; in data set [1] (40 g/ha) it was 20%; in data set [1] (setting [3]), 30%. The “Phytotoxicity … Transplanted” value in data set [1] (10 g/ha) came to 0%; in data set [1] (20 g/ha), 0%; in data set [1] (40 g/ha), 0%; in data set [1] (80 g/ha), 20%. In addition, the values for the pest or weed control at 5 g/ha in data set [2] (setting [4]) and in data set [2] (setting [5]) were 60% and 50%, respectively. Moreover, the results for the pest or weed control at 10 g/ha in data set [2] (setting [4]) and in data set [2] (setting [5]) were 70% and 80%, respectively. Further, the pest or weed control at 20 g/ha in data set [2] (setting [4]) and in data set [2] (setting [5]) was 90% in each case. Also, the pest or weed control at 30 g/ha in data set [2] (setting [4]) and in data set [2] (setting [6]) was 100% each time.
On to `COCC(=O)O[C@H](c1nccc(Br)c1S(=O)(=O)NC(=O)Nc1nc(OC)cc(OC)n1)[C@H](C)F` [Com. 6], for which the “Phytotoxicity, Oryza sativa, Seed” value is recorded as 0% in data set [1] (10 g/ha), 0% in data set [1] (20 g/ha), 10% in data set [1] (40 g/ha) and 20% in data set [1] (setting [3]). The “Phytotoxicity … Transplanted” value in data set [1] (10 g/ha) is 0%; in data set [1] (20 g/ha), 0%; in data set [1] (40 g/ha), 0%; in data set [1] (80 g/ha) it was 20%. Besides, the pest or weed control at 5 g/ha in data set [2] (setting [4]) amounted to 50%; in data set [2] (setting [5]), 60%. The pest or weed control at 10 g/ha in data set [2] (setting [4]) was determined as 70%; in data set [2] (setting [5]), 80%. Also, the pest or weed control at 20 g/ha in data set [2] (setting [4]) was determined as 90%; in data set [2] (setting [5]), 100%. Further, the pest or weed control at 30 g/ha in data set [2] (setting [4]) and in data set [2] (setting [6]) was 100% each time.
Take `COCC(=O)O[C@H](c1nccc(C)c1S(=O)(=O)NC(=O)Nc1nc(OC)cc(OC)n1)[C@H](C)F` [Com. 7]: the “Phytotoxicity, Oryza sativa, Seed” value in data set [1] (10 g/ha) is recorded as 0%; in data set [1] (20 g/ha) it was 0%; in data set [1] (40 g/ha), 20%; in data set [1] (setting [3]), 30%. The “Phytotoxicity … Transplanted” value in data set [1] (10 g/ha) was found to be 0%; in data set [1] (20 g/ha) it was 0%; in data set [1] (40 g/ha) it was 10%; in data set [1] (80 g/ha) it was 20%. Further, the pest or weed control at 5 g/ha was determined as 50% in data set [2] (setting [4]) and 60% in data set [2] (setting [5]). Moreover, the pest or weed control at 10 g/ha in data set [2] (setting [4]) and in data set [2] (setting [5]) was 80% throughout. The figures for the pest or weed control at 20 g/ha in data set [2] (setting [4]) and in data set [2] (setting [5]) were 95% and 90%, respectively. For the same molecule, the pest or weed control at 30 g/ha in data set [2] (setting [4]) and in data set [2] (setting [6]) was 100% each time.
On to `COc1cc(OC)nc(NC(=O)NS(=O)(=O)c2ccccc2[C@@H](O)[C@H](C)F)n1` [Standard Compound A, reference compound], for which the “Phytotoxicity, Oryza sativa, Seed” value was determined as 40% in data set [1] (10 g/ha), 40% in data set [1] (20 g/ha), 50% in data set [1] (40 g/ha) and 80% in data set [1] (setting [3]). Moreover, the “Phytotoxicity … Transplanted” value in data set [1] (10 g/ha) is 20%; in data set [1] (20 g/ha), 30%; in data set [1] (40 g/ha), 40%; in data set [1] (80 g/ha), 70%. In addition, the pest or weed control at 5 g/ha in data set [2] (setting [4]) and in data set [2] (setting [5]) was 60% each time. The pest or weed control at 10 g/ha is 90% in data set [2] (setting [4]) and 100% in data set [2] (setting [5]). The figures for the pest or weed control at 20 g/ha in data set [2] (setting [4]) and in data set [2] (setting [5]) were 95% and 100%, respectively. Also, the pest or weed control at 30 g/ha in data set [2] (setting [4]) and in data set [2] (setting [6]) was 100% throughout.
On to `COc1cc(OC)nc(NC(=O)NS(=O)(=O)c2ccccc2[C@@H](OC(C)=O)[C@H](C)F)n1` [Standard Compound B, reference compound], for which the “Phytotoxicity, Oryza sativa, Seed” value was found to be 30% in data set [1] (10 g/ha), 40% in data set [1] (20 g/ha), 50% in data set [1] (40 g/ha) and 70% in data set [1] (setting [3]). In addition, the “Phytotoxicity … Transplanted” value was found to be 20% in data set [1] (10 g/ha), 20% in data set [1] (20 g/ha), 40% in data set [1] (40 g/ha) and 60% in data set [1] (80 g/ha). Further, the pest or weed control at 5 g/ha in data set [2] (setting [4]) and in data set [2] (setting [5]) was 50% in each case. Moreover, the results for the pest or weed control at 10 g/ha in data set [2] (setting [4]) and in data set [2] (setting [5]) were 90% and 100%, respectively. Also, the pest or weed control at 20 g/ha in data set [2] (setting [4]) is 90%; in data set [2] (setting [5]), 100%. The pest or weed control at 30 g/ha in data set [2] (setting [4]) and in data set [2] (setting [6]) was 100% in each case.
Regarding `COc1cc(OC)nc(NC(=O)NS(=O)(=O)c2cccnc2[C@@H](O)[C@H](C)F)n1` [Standard Compound C, reference compound], the “Phytotoxicity, Oryza sativa, Seed” value in data set [1] (10 g/ha) came to 10%; in data set [1] (20 g/ha), 20%; in data set [1] (40 g/ha), 30%; in data set [1] (setting [3]), 70%. The “Phytotoxicity … Transplanted” value in data set [1] (10 g/ha) was found to be 10%; in data set [1] (20 g/ha) it was 20%; in data set [1] (40 g/ha) it was 30%; in data set [1] (80 g/ha), 50%. Besides, the values for the pest or weed control at 5 g/ha in data set [2] (setting [4]) and in data set [2] (setting [5]) were 60% and 40%, respectively. Besides, the figures for the pest or weed control at 10 g/ha in data set [2] (setting [4]) and in data set [2] (setting [5]) were 90% and 100%, respectively. For the same molecule, the pest or weed control at 20 g/ha in data set [2] (setting [4]) and in data set [2] (setting [5]) was 100% each time. The pest or weed control at 30 g/ha in data set [2] (setting [4]) and in data set [2] (setting [6]) was 100% in each case.
